Measurements reported in PubChem BioAssay (NCI).
“And” between values parts separate entries of the source, which are not always exact repeats. Identical values can stand only once.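 Assay format: 96-well plates, 48-hour exposure. GI50 is the concentration that inhibits growth by half. TGI denotes the concentration required for complete inhibition of growth.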

Assays:
Assay in all cases: NCI-60 cell line screen, 48 h
SR leukemia = tested on: SR leukemia
CCRF-CEM leukemia = tested on: CCRF-CEM leukemia
SK-MEL-2 melanoma = tested on: SK-MEL-2 melanoma
SW-620 colon = tested on: SW-620 colon
COLO 205 colon = tested on: COLO 205 colon
PC-3 prostate = tested on: PC-3 prostate
NCI-H522 lung = tested on: NCI-H522 lung
SNB-19 CNS = tested on: SNB-19 CNS
RXF 393 renal = tested on: RXF 393 renal
LOX IMVI melanoma = tested on: LOX IMVI melanoma

## Cc1cc(OCc2nn(CN3CCN(C)CC3)c(=S)n2/N=C/c2ccc(F)cc2)ccc1Cl
SR leukemia
  GI50: 13.3 µM
  TGI: 29.7 µM
CCRF-CEM leukemia
  GI50: 19.8 µM
  TGI: 43.4 µM
SK-MEL-2 melanoma
  GI50: 18.5 µM
  TGI: 37.6 µM
SW-620 colon
  GI50: 18.7 µM
  TGI: 35.7 µM
COLO 205 colon
  GI50: 12.6 µM
  TGI: 25.7 µM
PC-3 prostate
  GI50: 16.2 µM
  TGI: 31.6 µM
NCI-H522 lung
  GI50: 15.7 µM
  TGI: 30.8 µM
SNB-19 CNS
  GI50: 17.6 µM
  TGI: 33.8 µM
RXF 393 renal
  GI50: 17.5 µM
  TGI: 31.9 µM
LOX IMVI melanoma
  GI50: 18.3 µM
  TGI: 32.7 µM

## NC(=O)c1ncn2c(=O)n(CCCl)nnc12
SR leukemia
  GI50: 57.9 µM
  TGI: 801 µM
CCRF-CEM leukemia
  GI50: > 62.9 µM
  TGI: 440 µM
SK-MEL-2 melanoma
  TGI: 511 µM
SW-620 colon
  GI50: 51.2 µM
  TGI: 822 µM
COLO 205 colon
  TGI: 305 µM
PC-3 prostate
  TGI: 534 µM
NCI-H522 lung
  TGI: 384 µM
SNB-19 CNS
  GI50: 69 µM
  TGI: 995 µM
RXF 393 renal
  TGI: 337 µM
LOX IMVI melanoma
  TGI: 279 µM

## Cn1cc(-c2nc(-c3cn(C)c4ncccc34)cs2)c2ccccc21
SR leukemia
  GI50: 0.703 µM
  TGI: > 100 µM
CCRF-CEM leukemia
  GI50: 2.98 µM
  TGI: > 100 µM
SK-MEL-2 melanoma
  GI50: 4.5 µM
  TGI: 68.7 µM
SW-620 colon
  GI50: 1.24 µM
  TGI: > 100 µM
COLO 205 colon
  GI50: 1.68 µM
  TGI: 14 µM
PC-3 prostate
  GI50: 1.92 µM
  TGI: 9.3 µM
NCI-H522 lung
  GI50: 0.402 µM
  TGI: 11.9 µM
SNB-19 CNS
  GI50: 3.68 µM
  TGI: 25.2 µM
RXF 393 renal
  GI50: 1.53 µM
  TGI: 4.09 µM
LOX IMVI melanoma
  GI50: 1.27 µM
  TGI: > 100 µM

## COc1ccc2c(c1)C(=O)c1c-2n(CCCCl)c(=O)c2cc(N)ccc12
SR leukemia
  GI50: > 62.8 µM
  TGI: > 100 µM
CCRF-CEM leukemia
  GI50: > 44.5 µM
  TGI: > 59.4 µM
SK-MEL-2 melanoma
  GI50: > 100 µM
  TGI: > 100 µM
SW-620 colon
  GI50: > 68.1 µM
  TGI: > 100 µM
COLO 205 colon
  GI50: > 100 µM
  TGI: > 100 µM
PC-3 prostate
  GI50: > 72.8 µM
  TGI: > 100 µM
NCI-H522 lung
  GI50: > 84.4 µM
  TGI: > 100 µM
SNB-19 CNS
  GI50: > 100 µM
  TGI: > 100 µM
RXF 393 renal
  GI50: > 57.3 µM
  TGI: > 100 µM
LOX IMVI melanoma
  GI50: 98.2 µM
  TGI: > 100 µM

## O=C(O)c1cc(Cl)cc(Cc2cc(Cl)cc(C(=O)O)c2O)c1O
SR leukemia
  TGI: > 100 µM
CCRF-CEM leukemia
  TGI: > 100 µM
SK-MEL-2 melanoma
  TGI: > 100 µM
SW-620 colon
  TGI: > 100 µM
COLO 205 colon
  TGI: > 100 µM
PC-3 prostate
  TGI: > 100 µM
NCI-H522 lung
  TGI: > 100 µM
SNB-19 CNS
  TGI: > 100 µM
RXF 393 renal
  TGI: > 100 µM
LOX IMVI melanoma
  TGI: > 100 µM

## C=C1C(O)C2CC(C)(C)C(=O)C2=C(CC(C)C)C12CC2 (stereo not given)
SR leukemia
  GI50: 62.4 µM
  TGI: > 100 µM
CCRF-CEM leukemia
  GI50: 98.1 µM
  TGI: > 100 µM
SK-MEL-2 melanoma
  GI50: > 100 µM
  TGI: > 100 µM
SW-620 colon
  GI50: > 100 µM
  TGI: > 100 µM
COLO 205 colon
  GI50: > 100 µM
  TGI: > 100 µM
PC-3 prostate
  GI50: > 100 µM
  TGI: > 100 µM
NCI-H522 lung
  GI50: 85 µM
  TGI: > 100 µM
SNB-19 CNS
  GI50: > 100 µM
  TGI: > 100 µM
RXF 393 renal
  GI50: > 100 µM
  TGI: > 100 µM
LOX IMVI melanoma
  GI50: > 100 µM
  TGI: > 100 µM

## OCC1OC(n2cnc3c(NCc4ccco4)ncnc32)C(O)C1O (stereo not given)
SR leukemia
  GI50: 1.56 µM
  TGI: 6.92 µM
CCRF-CEM leukemia
  GI50: 0.43 µM
  TGI: 5.4 µM
SK-MEL-2 melanoma
  GI50: 5.43 µM
  TGI: 31.6 µM
SW-620 colon
  GI50: 0.849 µM
  TGI: > 100 µM
COLO 205 colon
  GI50: 2.25 µM
  TGI: 7.83 µM
PC-3 prostate
  GI50: 1.33 µM
  TGI: 19.1 µM
NCI-H522 lung
  GI50: 1.34 µM
  TGI: 22 µM
SNB-19 CNS
  GI50: 3.99 µM
  TGI: > 100 µM
RXF 393 renal
  GI50: 2.21 µM
  TGI: 15 µM
LOX IMVI melanoma
  GI50: 0.338 µM
  TGI: 1.48 µM

## COc1cc(/C=C/c2ccnc3ccccc23)cc(OC)c1OC
SR leukemia
  GI50: 0.755 µM
CCRF-CEM leukemia
  GI50: 3.64 µM
SK-MEL-2 melanoma
  TGI: > 100 µM
SW-620 colon
  GI50: 0.906 µM
  TGI: > 100 µM and 20 µM
COLO 205 colon
  GI50: 3.26 µM
  TGI: 7.36 µM and 15.1 µM
PC-3 prostate
  GI50: 3.81 µM
  TGI: 94.1 µM and > 100 µM
NCI-H522 lung
  TGI: 46.8 µM and 7.39 µM
SNB-19 CNS
  GI50: 6.71 µM
  TGI: 42.1 µM and > 100 µM
RXF 393 renal
  GI50: 1.97 µM
  TGI: 15.3 µM and 8.02 µM
LOX IMVI melanoma
  GI50: 5.25 µM
  TGI: 29.3 µM and > 100 µM
